Test results as given in US10100076B2, “Modified nucleosides for the treatment of viral infections and abnormal cellular proliferation” (priority 2000, dated 2018).

Experiments:
HCV replicon = HCV replicon system in Huh7 cells, replicon RNA by Q-RT-PCR (HCV ΔCt, ΔΔCt); assay type: cell-based, hepatitis C virus; conditions: for Ave. ΔΔCt: HCV RNA ΔCt minus rRNA ΔCt; for Ave. HCV RNA ΔCt: HCV replicon in Huh7 cells; for average ΔΔCt: HCV RNA ΔCt minus rDNA ΔCt
[1] = system: rRNA (host RNA polymerase I product); assay: rRNA ΔCt in Huh7 replicon cells (effect on host RNA polymerases); conditions: Table 24, average of n
Description: In a typical setting, a compound might reduce both the host RNA polymerase activity and the replicon-encoded polymerase activity. Therefore, quantification of rRNA (or any other host RNA polymerase I product) or beta-actin mRNA (or any other host RNA polymerase II) and comparison with RNA levels of the no-drug control is a relative measurement of the effect of the test compound on host RNA polymerases.
With the availability of both the HCV ΔCt data and the rRNA ΔCt, a specificity parameter can be introduced. This parameter is obtained by subtracting both ΔCt values from each other.

rDNA (host DNA) = assay: rDNA ΔCt in Huh7 replicon cells (effect on cellular DNA polymerases); conditions: Table 25, average of N
Description: In another typical setting, a compound might reduce the host RNA polymerase activity, but not the host DNA polymerase activity. Therefore, quantification of rDNA or beta-actin DNA (or any other host DNA fragment) and comparison with DNA levels of the no-drug control is a relative measurement of the inhibitory effect of the test compound on cellular DNA polymerases.
With the availability of both the HCV ΔCt data and the rDNA ΔCt, a specificity parameter can be introduced. This parameter is obtained by subtracting both ΔCt values from each other.
Note: test concentration or dose not given here.

Structure (SMILES): Nc1cn([C@@H]2O[C@H](CO)[C@@H](O)[C@H]2O)c(=O)nc1N [β-D-BJ]
- Ave. ΔΔCt (HCV replicon; Table 24): 1.44
- Ave. HCV RNA ΔCt (HCV replicon; Table 24, average of n): 5.06
- average ΔΔCt (HCV replicon; Table 25): 3.53
- Ave. HCV RNA ΔCt (HCV replicon; Table 25, average of N): 4.34
- Ave. rRNA ΔCt [1]: 3.62
- Ave. rDNA ΔCt (rDNA (host DNA)): 0.81

Structure (SMILES): N=c1nc(N)ccn1[C@@H]1O[C@H](CO)[C@@H](O)[C@@H]1O [β-D-BL]
- Ave. ΔΔCt (HCV replicon; Table 24): 0.35
- Ave. HCV RNA ΔCt (HCV replicon; Table 24, average of n): 2.28
- average ΔΔCt (HCV replicon; Table 25): 0.65
- Ave. HCV RNA ΔCt (HCV replicon; Table 25, average of N): 2.28
- Ave. rRNA ΔCt [1]: 1.93
- Ave. rDNA ΔCt (rDNA (host DNA)): 1.62

Structure (SMILES): CC(=O)Nc1ccn([C@@H]2O[C@H](CO)[C@@H](O)[C@@H]2O)c(=O)n1 [β-D-BO]
- Ave. ΔΔCt (HCV replicon; Table 24): 1.57
- Ave. HCV RNA ΔCt (HCV replicon; Table 24, average of n): 4.52
- Ave. rRNA ΔCt [1]: 2.95

Structure (SMILES): O=c1nc(NO)c(F)cn1[C@@H]1O[C@H](CO)[C@@H](O)[C@H]1O [β-D-BT]
- Ave. ΔΔCt (HCV replicon; Table 24): 1.24
- Ave. HCV RNA ΔCt (HCV replicon; Table 24, average of n): 4.83
- average ΔΔCt (HCV replicon; Table 25): 3.39
- Ave. HCV RNA ΔCt (HCV replicon; Table 25, average of N): 4.44
- Ave. rRNA ΔCt [1]: 3.59
- Ave. rDNA ΔCt (rDNA (host DNA)): 1.17

Structure (SMILES): O=c1nc(NO)c(Br)cn1[C@@H]1O[C@H](CO)[C@@H](O)[C@H]1O [β-D-BU]
- Ave. ΔΔCt (HCV replicon; Table 24): 1.06
- Ave. HCV RNA ΔCt (HCV replicon; Table 24, average of n): 3.46
- average ΔΔCt (HCV replicon; Table 25): 1.16
- Ave. HCV RNA ΔCt (HCV replicon; Table 25, average of N): 3.46
- Ave. rRNA ΔCt [1]: 2.18
- Ave. rDNA ΔCt (rDNA (host DNA)): 1.10

Structure (SMILES): O=c1nc(NO)c(I)cn1[C@@H]1O[C@H](CO)[C@@H](O)[C@H]1O [β-D-BV]
- Ave. ΔΔCt (HCV replicon; Table 24): 1.22
- Ave. HCV RNA ΔCt (HCV replicon; Table 24, average of n): 1.88
- average ΔΔCt (HCV replicon; Table 25): 1.65
- Ave. HCV RNA ΔCt (HCV replicon; Table 25, average of N): 1.88
- Ave. rRNA ΔCt [1]: 0.65
- Ave. rDNA ΔCt (rDNA (host DNA)): 0.31

Structure (SMILES): O=c1[nH]c(=O)n([C@@H]2O[C@H](CO)[C@@H](O)[C@H]2O)cc1F [β-D-CC]
- Ave. ΔΔCt (HCV replicon; Table 24): 0.21
- Ave. HCV RNA ΔCt (HCV replicon; Table 24, average of n): 5.04
- average ΔΔCt (HCV replicon; Table 25): 3.66
- Ave. HCV RNA ΔCt (HCV replicon; Table 25, average of N): 5.84
- Ave. rRNA ΔCt [1]: 4.82
- Ave. rDNA ΔCt (rDNA (host DNA)): 2.17

Structure (SMILES): Nc1ncnc2c1ncn2[C@@H]1O[C@H](CO)[C@@H](F)[C@H]1O [β-D-DD]
- Ave. ΔΔCt (HCV replicon; Table 24): 1.61
- Ave. HCV RNA ΔCt (HCV replicon; Table 24, average of n): 6.60
- average ΔΔCt (HCV replicon; Table 25): 3.30
- Ave. HCV RNA ΔCt (HCV replicon; Table 25, average of N): 6.60
- Ave. rRNA ΔCt [1]: 4.99
- Ave. rDNA ΔCt (rDNA (host DNA)): 3.30

Structure (SMILES): OC[C@@H]1C[C@H](F)[C@H](n2cnc3c(Cl)ncnc32)O1 [β-D-DH]
- Ave. ΔΔCt (HCV replicon; Table 24): 1.21
- Ave. HCV RNA ΔCt (HCV replicon; Table 24, average of n): 4.13
- average ΔΔCt (HCV replicon; Table 25): 3.25
- Ave. HCV RNA ΔCt (HCV replicon; Table 25, average of N): 4.14
- Ave. rRNA ΔCt [1]: 2.91
- Ave. rDNA ΔCt (rDNA (host DNA)): 0.89

Structure (SMILES): O=C(Nc1nc(=O)n([C@H]2C=C[C@@H](CO)O2)cc1F)c1ccccc1[N+](=O)[O-] [β-D-EB]
- Ave. ΔΔCt (HCV replicon; Table 24): 1.90
- Ave. HCV RNA ΔCt (HCV replicon; Table 24, average of n): 3.33
- average ΔΔCt (HCV replicon; Table 25): 2.37
- Ave. HCV RNA ΔCt (HCV replicon; Table 25, average of N): 3.33
- Ave. rRNA ΔCt [1]: 1.42
- Ave. rDNA ΔCt (rDNA (host DNA)): 0.96

Structure (SMILES): OC[C@@H]1C=C(F)[C@H](n2cnc3c(Cl)ncnc32)O1 [β-D-FA]
- Ave. ΔΔCt (HCV replicon; Table 24): 1.44
- Ave. HCV RNA ΔCt (HCV replicon; Table 24, average of n): 3.80
- average ΔΔCt (HCV replicon; Table 25): 0.78
- Ave. HCV RNA ΔCt (HCV replicon; Table 25, average of N): 3.80
- Ave. rRNA ΔCt [1]: 3.58
- Ave. rDNA ΔCt (rDNA (host DNA)): 1.92

Structure (SMILES): Nc1ccn([C@@H]2C=C(CO)[C@@H](O)[C@H]2O)c(=O)n1 [β-D-HA]
- Ave. ΔΔCt (HCV replicon; Table 24): 1.68
- Ave. HCV RNA ΔCt (HCV replicon; Table 24, average of n): 5.52
- average ΔΔCt (HCV replicon; Table 25): 3.16
- Ave. HCV RNA ΔCt (HCV replicon; Table 25, average of N): 5.12
- Ave. rRNA ΔCt [1]: 3.85
- Ave. rDNA ΔCt (rDNA (host DNA)): 2.04

Structure (SMILES): CC1(CO)CO[C@@H](n2cnc3c(N)nc(F)nc32)C1 (stereo partly drawn) [β-D-VA]
- Ave. ΔΔCt (HCV replicon; Table 24): 1.39
- Ave. HCV RNA ΔCt (HCV replicon; Table 24, average of n): 5.56
- Ave. rRNA ΔCt [1]: 4.17
